Where a SMILES comes first, the peptide text is derived from it. Bridges are numbered along the chain shown (N, C = ends). [ ]: non-standard residue; d: D form. dPen = CC(C)(S)[C@@H](N)C(=O)O; Dap = NC[C@H](N)C(=O)O

In the assay the target is T1, P-selectin (Homo sapiens, UniProt P16109).
T1 construct: P-selectin is isolated from human platelet lysates; from tissue; host or cells: human platelets (outdated platelet packs from a blood bank)
T1 sequence (P16109 42-830): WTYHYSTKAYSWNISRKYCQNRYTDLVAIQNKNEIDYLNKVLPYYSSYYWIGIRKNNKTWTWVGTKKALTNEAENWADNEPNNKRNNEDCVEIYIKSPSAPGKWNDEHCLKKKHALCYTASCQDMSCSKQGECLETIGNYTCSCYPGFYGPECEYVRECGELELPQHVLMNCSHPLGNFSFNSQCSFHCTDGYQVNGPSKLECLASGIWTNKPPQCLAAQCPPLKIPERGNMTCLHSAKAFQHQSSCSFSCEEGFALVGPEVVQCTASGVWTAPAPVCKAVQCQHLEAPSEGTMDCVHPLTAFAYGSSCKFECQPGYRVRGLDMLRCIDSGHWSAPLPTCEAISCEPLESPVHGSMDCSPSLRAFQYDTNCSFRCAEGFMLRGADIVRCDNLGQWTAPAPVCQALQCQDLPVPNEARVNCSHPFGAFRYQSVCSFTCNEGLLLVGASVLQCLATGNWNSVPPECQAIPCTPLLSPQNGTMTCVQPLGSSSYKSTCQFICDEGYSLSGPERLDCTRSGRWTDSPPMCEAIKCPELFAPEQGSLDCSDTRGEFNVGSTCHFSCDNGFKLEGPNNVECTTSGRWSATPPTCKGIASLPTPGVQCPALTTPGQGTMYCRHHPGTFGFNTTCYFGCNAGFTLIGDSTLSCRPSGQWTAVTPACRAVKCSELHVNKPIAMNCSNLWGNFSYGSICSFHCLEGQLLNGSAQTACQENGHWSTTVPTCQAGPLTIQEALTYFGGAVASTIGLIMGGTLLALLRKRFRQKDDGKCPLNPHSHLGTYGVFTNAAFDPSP
Put plainly: Inhibition of human neutrophil adhesion to purified P-selectin immobilized on plastic wells. It counts as cell-based. Particulars: inhibiting the binding of human neutrophils to P-selectin. From the text: Peptides can be screened for their ability to inhibit adhesion to cells, for example, neutrophil adhesion to purified P-selectin immobilized on plastic wells, using the assay described by Geng, et al., Nature 343, 757-760 (1990). Human neutrophils are isolated from heparinized whole blood by density gradient centrifugation on Mono-Poly resolving media, Flow Laboratories. Neutrophil suspensions are greater than 98% pure and greater than 95% viable by trypan blue exclusion. For adhesion assays, neutrophils are suspended at a concentration of 2×10^6 cells/mL in Hanks' balanced salt solution containing 1.26 mM Ca^2+ and 0.81 mM Mg^2+ (HBSS, Gibco) with […] human serum albumin (HBSS/HSA). Adhesion assays are conducted in triplicate in 96-well microliter plates, Corning, incubated at 4° C. overnight with 50 microliters of various protein solutions. P-selectin is isolated from human platelet lysates by immunoaffinity chromatography on antibody S12-Sepharose™ and ion-exchange chromatography on a Mono-Q™ column (FLPC, Pharmacia Fine Chemicals), as follows. Outdated human platelet packs (100 units) obtained from a blood bank and stored at 4° C. are pooled, adjusted to 5 mM EDTA at pH 7.5, centrifuged at 4,000 rpm for 30 minutes in 1 liter bottles, then washed three times with 1 liter of 0.1M NaCl, 20 mM Tris pH 7.5 (TBS), 5 mM EDTA, 5 mM benzamidine. The pellets are then resuspended in a minimum amount of wash buffer and made 1 mM in DIFP, then frozen in 50 mL screwtop tubes at -80° C. The frozen platelets are thawed and resuspended in 50 mL TBS, 5 mM benzamidine, 5 mM EDTA pH 7.5, […]. The suspension is frozen and thawed two times in a dry ice-acetone bath using a 600 mL lyophilizing flask, then homogenized in a glass/teflon mortar and pestle and made 1 mM in DIFP. The NaCl concentration is adjusted to 0.5M with a stock solution of 4M NaCl. After stirring the suspension at 4° C., it is centrifuged in polycarbonate tubes at 33,000 rpm for 60 minutes at 4° C. The supernatant (0.5M NaCl wash) is removed and saved; this supernatant contains the soluble form of P-selectin. Care is taken not to remove the top part of the pellet with the supernatant. The pellets are then homogenized in extraction buffer (TBS, 5 mM benzamidine, 5 mM EDTA, pH 7.5, 100 μM leupeptin, 2% Triton X-100). After centrifugation at 19,500 rpm for 25 minutes at 4° C., the supernatant is removed. The extraction procedure is repeated with the pellet and the supernatant is combined with the first supernatant. The combined extracts, which contain the membrane form of P-selectin, are adjusted to 0.5M NaCl. The soluble fraction (0.5M NaCl wash) and the membrane extract (also adjusted to 0.5M NaCl) are absorbed with separate pools of the monoclonal antibody S12 (directed to P-selectin) previously couple […]) at 5 mg/mL for 2 hours at 4° C. After letting the resins settle, the supernatants are removed. The S12 Affigel containing bound GMP-140 is then loaded into a column and washed overnight at 4° C. with 400 mL of 0.5M NaCl, 20 mM Tris pH 7.5, 0.01% Lubrol PX. Bound P-selectin is eluted from the S12 Affigel with 100 mL of 80% ethylene glycol, 1 mM MES pH 6.0, 0.01% Lubrol PX. Peak fractions with absorbance at 280 nm are pooled. Eluates are dialyzed against TBS with 0.05% Lubrol, then applied to a Mono Q column (FPLC from Pharmacia). The concentrated protein is step eluted with 2M NaCl, 20 mM Tris pH 7.5 (plus 0.05% Lubrol PX for the membrane fraction). Peak fractions are dialyzed into TBS pH 7.5 (plus 0.05% Lubrol PX for the membrane fraction). P-selectin is plated at 5 micrograms/mL and the control proteins: human serum albumin (Alb), platelet glycoprotein IIb/IIIa (IIb), von Willebrand factor (vWF), fibrinogen (FIB), thrombomodulin (TM), gelatin (GEL) or human serum (HS), are added at 50 micrograms/mL. […]
One may read the IC50 as the concentration at which inhibition is half-maximal. On to `CC[C@H](C)[C@@H]1NC(=O)[C@H](CCCCN)NC(=O)[C@@H](N)CCCCNC(=O)CC[C@@H](C(=O)N[C@@H](Cc2c[nH]c3ccccc23)C(=O)N[C@H](C(=O)N[C@@H](Cc2c[nH]c3ccccc23)C(=O)N[C@H](C(N)=O)C(C)C)[C@@H](C)O)NC(=O)CNC(=O)CNC1=O` [(2)] (H-KKIGGEWTWV-NH2; lactam 1-6), for which the IC50 stood at 69 µM. In the case of `CC[C@H](C)[C@@H]1NC(=O)CNC(=O)CNC(=O)[C@H]([C@@H](C)CC)NC(=O)[C@H](CCCCN)NC(=O)[C@@H](N)CSSC[C@@H](C(N)=O)NC(=O)[C@H](Cc2c[nH]c3ccccc23)NC(=O)[C@H]([C@@H](C)O)NC(=O)[C@H](Cc2c[nH]c3ccccc23)NC1=O` [(3)] (H-CKIGGIWTWC-NH2; disulfide 1-10) it was 131 µM.

With `CC[C@H](C)[C@@H]1NC(=O)[C@@H](NC(=O)[C@@H](N)CCCNC(=N)N)CSSC[C@@H](C(=O)N[C@@H](Cc2c[nH]c3ccccc23)C(=O)N[C@H](C(=O)N[C@@H](Cc2c[nH]c3ccccc23)C(=O)N[C@H](C(N)=O)C(C)C)[C@@H](C)O)NC(=O)CNC(=O)CNC1=O` [(5)] (H-RCIGGCWTWV-NH2; disulfide 2-6), the half-inhibitory concentration (IC50) stood at 36 µM.

Take `CC(C)[C@H](NC(=O)[C@H](Cc1c[nH]c2ccccc12)NC(=O)[C@@H](NC(=O)[C@H](Cc1c[nH]c2ccccc12)NC(=O)[C@@H]1CSSC[C@H](N)C(=O)N[C@@H](CCCNC(=N)N)C(=O)NCC(=O)NCC(=O)N1)[C@@H](C)O)C(N)=O` [(6)] (H-CRGGCWTWV-NH2; disulfide 1-5): the IC50 was 54 µM.

Compound `C[C@@H](O)[C@H](NC(=O)[C@H](Cc1c[nH]c2ccccc12)NC(=O)[C@@H]1CSSC[C@H](NC(=O)[C@H](CCCCN)NC(=O)[C@@H](N)CCCNC(=N)N)C(=O)NCC(=O)NCC(=O)N1)C(=O)N[C@@H](Cc1c[nH]c2ccccc12)C(N)=O` [(7)] (H-RKCGGCWTW-NH2; disulfide 3-6) registered an IC50 of 610 µM. Compound `C[C@H](O)[C@@H](NC(=O)[C@@H](Cc1c[nH]c2ccccc12)NC(=O)[C@H]1CSSC[C@@H](NC(=O)[C@@H](CCCCN)NC(=O)[C@H](N)CCCNC(=N)N)C(=O)NCC(=O)NCC(=O)N1)C(=O)N[C@H](Cc1c[nH]c2ccccc12)C(N)=O` [(8)] (H-[dR][dK][dC]GG[dC][dW][dT][dW]-NH2; disulfide 3-6) registered an IC50 of 97 µM. The compound `CC(C)[C@H](NC(=O)[C@H](Cc1c[nH]c2ccccc12)NC(=O)[C@@H](NC(=O)[C@H](Cc1c[nH]c2ccccc12)NC(=O)[C@@H]1NC(=O)CNC(=O)CNC(=O)[C@@H](NC(=O)[C@H](CCCCN)NC(=O)[C@@H](N)CCCNC(=N)N)CSSC1(C)C)[C@@H](C)O)C(N)=O` [(10)] (H-RKCGG[dPen]WTWV-NH2; disulfide 3-6) returned an IC50 of 30 µM. Compound `CC(C)[C@@H](NC(=O)[C@@H](Cc1c[nH]c2ccccc12)NC(=O)[C@H](NC(=O)[C@@H](Cc1ccccc1)NC(=O)[C@H]1CSSC[C@@H](NC(=O)[C@@H](CCCCN)NC(=O)[C@H](N)CCCNC(=N)N)C(=O)NCC(=O)NCC(=O)N1)[C@H](C)O)C(N)=O` [(14)] (H-[dR][dK][dC]GG[dC][dF][dT][dW][dV]-NH2; disulfide 3-6) displayed an IC50 of 40 µM.

The compound `CC(C)[C@@H](NC(=O)[C@@H](Cc1c[nH]c2ccccc12)NC(=O)[C@H](NC(=O)[C@@H](Cc1c[nH]c2ccccc12)NC(=O)[C@H]1CSSC[C@@H](NC(=O)[C@@H](CCCCN)NC(=O)[C@H](N)CCCNC(=N)N)C(=O)N2CCC[C@@H]2C(=O)NCC(=O)N1)[C@H](C)O)C(N)=O` [(15)] (H-[dR][dK][dC][dP]G[dC][dW][dT][dW][dV]-NH2; disulfide 3-6) returned an IC50 of 485 µM. The compound `CC(C)[C@@H](NC(=O)[C@@H](Cc1c[nH]c2ccccc12)NC(=O)[C@H](NC(=O)[C@@H](Cc1c[nH]c2ccccc12)NC(=O)[C@H]1CSSC[C@@H](NC(=O)[C@@H](CCCCN)NC(=O)[C@H](N)CCCNC(=N)N)C(=O)NCC(=O)N2CCC[C@@H]2C(=O)N1)[C@H](C)O)C(N)=O` [(16)] (H-[dR][dK][dC]G[dP][dC][dW][dT][dW][dV]-NH2; disulfide 3-6) came in with an IC50 of 1 µM. Take `CC(C)[C@@H](NC(=O)[C@@H](Cc1c[nH]c2ccccc12)NC(=O)[C@@H](CCC(N)=O)NC(=O)[C@H](NC(=O)[C@@H](Cc1c[nH]c2ccccc12)NC(=O)[C@H]1CSSC[C@@H](NC(=O)[C@@H](CCCCN)NC(=O)[C@H](N)CCCNC(=N)N)C(=O)NCC(=O)NCC(=O)N1)[C@H](C)O)C(N)=O` [(17)] (H-[dR][dK][dC]GG[dC][dW][dT][dQ][dW][dV]-NH2; disulfide 3-6): the IC50 is 225 µM. With `CC(C)[C@H](NC(=O)[C@H](Cc1c[nH]c2ccccc12)NC(=O)[C@@H](NC(=O)[C@H](Cc1c[nH]c2ccccc12)NC(=O)[C@@H]1CC(=O)NC[C@H](NC(=O)[C@H](CCCCN)NC(=O)[C@@H](N)CCCNC(=N)N)C(=O)NCC(=O)NCC(=O)N1)[C@@H](C)O)C(N)=O` [(22)] (H-RK[Dap]GGDWTWV-NH2; lactam 3-6), the IC50 is 13 µM. In the case of `CC(C)[C@H](NC(=O)[C@H](Cc1c[nH]c2ccccc12)NC(=O)[C@@H](NC(=O)[C@H](Cc1c[nH]c2ccccc12)NC(=O)[C@@H]1CSSC(C)(C)[C@@H](NC(=O)[C@H](CCCCN)NC(=O)[C@@H](N)CCCNC(=N)N)C(=O)NCC(=O)NCC(=O)N1)[C@@H](C)O)C(N)=O` [(23)] (H-RK[dPen]GGCWTWV-NH2; disulfide 3-6) it was 36 µM; in that of `CC(C)[C@H](NC(=O)[C@H](Cc1c[nH]c2ccccc12)NC(=O)[C@@H](NC(=O)[C@H](Cc1c[nH]c2ccccc12)NC(=O)[C@@H]1NC(=O)CNC(=O)CNC(=O)[C@H](NC(=O)[C@H](CCCCN)NC(=O)[C@@H](N)CCCNC(=N)N)C(C)(C)SSC1(C)C)[C@@H](C)O)C(N)=O` [(24)] (H-RK[dPen]GG[dPen]WTWV-NH2; disulfide 3-6), 41 µM. The result for `CC(C)[C@@H](NC(=O)[C@@H](Cc1c[nH]c2ccccc12)NC(=O)[C@H](NC(=O)[C@@H](Cc1c[nH]c2ccccc12)NC(=O)[C@H]1CSSC[C@@H](NC(=O)[C@H](N)CCCCN)C(=O)NCC(=O)NCC(=O)N1)[C@H](C)O)C(N)=O` [(26)] (H-[dK][dC]GG[dC][dW][dT][dW][dV]-NH2; disulfide 2-5) reads 26 µM.

Source of the values: patent US5753617A, “Peptide inhibitors of cellular adhesion” (Centocor, Inc., priority 1995, dated 1998).
